Patent US20260165323A1, “USE OF STROBILURIN TYPE COMPOUNDS FOR COMBATING PHYTOPATHOGENIC FUNGI CONTAINING AN AMINO ACID SUBSTITUTION F129L IN THE MITOCHONDRIAL CYTOCHROME B PROTEIN CONFERRING RESISTANCE TO QO […]” (priority 2022, published 2026)

Legend:
[1] = tested on: Drechslera teres (PYRNTE) containing the amino acid substitution F129L in the mitochondrial cytochrome b protein; test: Use example 10: microtest, growth of Drechslera teres (PYRNTE) F129L; assay type: cell-based; conditions: 125 ppm, relative growth vs compound-free control (100%), 7 days; for Growth (%) PYRNTE F129L Use ex. 10: Table 13; for Growth (%) PYRNTE F129L Use Ex. 10: Table 7
Description: (§1) The active compounds were formulated separately as a stock solution having a concentration of 10000 ppm in dimethyl sulfoxide. The stock solutions were mixed according to the ratio, pipetted onto a micro titer plate (MTP) and diluted with water to the stated concentrations. A spore suspension of one of the following fungal plant pathogens in aqueous bio malt solution • was then added for the respective use example: • Use example 5: Alternaria solani (ALTESO) • Use example 6: Botrytis cinerea (BOTRCI) • Use example 7: Cercospora sojina (CERCSO) • Use example 8: Colletotrichum orbiculare (COLLLA) • Use example 9: Leptosphaeria nodorum (LEPTNO) • Use example 10: Drechslera teres (PYRNTE) containing the amino acid substitution F129L in the mitochondrial cytochrome b protein conferring resistance to Qo inhibitors • Use example 11: Sclerotinia sclerotiorum (SCLESC), solute with ultrasonic from a filter membrane
(§2) The plates were placed in a water vapor-saturated chamber at a temperature of 18° C. Using an absorption photometer, the MTPs were measured at 405 nm 7 days after the inoculation.
(§3) The measured parameters were compared to the growth of the active compound-free control variant (100%) and the fungus-free blank value to determine the relative growth in % of the pathogens in the respective active compounds.

[2] = tested on: Colletotrichum orbiculare (COLLLA); test: Use example 8: microtest, growth of Colletotrichum orbiculare (COLLLA); assay type: cell-based; conditions: relative growth vs compound-free control (100%); for Growth (%) COLLLA Use ex. 8: 8 ppm; for Growth (%) COLLLA Use ex. 8 / Growth (%) COLLLA Use Ex. 8: 7 days; for Growth at 2 ppm (%) COLLLA Use ex. 8: 7 days after inoculation; for Growth (%) COLLLA Use Ex. 8: 125 ppm
Description: as §1, §2, §3

[3] = tested on: Puccinia recondita; test: Use Example 4: preventative control of brown rust on wheat (PUCCRT P7); assay type: in vivo; conditions: inoculated seven days after spraying, % diseased leaf area
In short: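 First two leaves of potted wheat seedlings sprayed to run-off with compound in acetone/DMSO–emulsifier–water, then inoculated with Puccinia recondita spores seven days later. Plants held 24 h dark at 95–99% RH and 20–24 °C, then 9–11 days in greenhouse; diseased leaf area (%) scored visually.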

[4] = tested on: Phakopsora pachyrhizi containing the amino acid substitution F129L in the mitochondrial cytochrome b protein; test: Use Example 1: protective control of soybean rust on soybeans (PHAKPA P2); assay type: in vivo; conditions: inoculated 2 days after spraying, % diseased leaf area
In short: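 Soybean seedling leaves sprayed to run-off with compound in acetone/DMSO–Wettol–water at the stated concentration, kept 2 days at 23-27° C, then inoculated with Qo-inhibitor-resistant F129L P. pachyrhizi. After 24 h at ~95% RH, 20-24° C, and up to 14 days in greenhouse, % diseased leaf area scored visually.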

[5] = tested on: Phakopsora pachyrhizi containing the amino acid substitution F129L in the mitochondrial cytochrome b protein; test: Use Example 2: protective control of soybean rust on soybeans (PHAKPA P6); assay type: in vivo; conditions: inoculated six days after spraying, % diseased leaf area
In short: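 Compound in acetone and/or DMSO with Wettol (99:1), diluted with water, was sprayed to run-off on potted soybean seedlings. After six days at 23–27°C and 60–80% RH, plants were inoculated with a Qo-resistant F129L strain and held 24 h at about 95% RH. Percent diseased leaf area was scored visually after up to 14 days.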

[6] = tested on: Puccinia recondita; test: Use Example 3: curative control of brown rust on wheat (PUCCRT K4); assay type: in vivo; conditions: % diseased leaf area
In short: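 Wheat seedlings inoculated with Puccinia recondita spores, held 24 h at 95–99% RH, 20–24° C in dark, then 3 days in greenhouse before spraying to run-off (curative). Compound in acetone/DMSO–Wettol–water. After 5–7 further days at 20–24° C, 65–70% RH, % diseased leaf area scored visually.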

[7] = tested on: Cercospora sojina (CERCSO); test: Use example 7: microtest, growth of Cercospora sojina (CERCSO); assay type: cell-based; conditions: relative growth vs compound-free control (100%); for Growth (%) CERCSO Use Ex. 7: 7 days; for Growth at 8 ppm (%) CERCSO Use ex. 7: 7 days after inoculation
Description: as §1, §2, §3

[8] = tested on: Leptosphaeria nodorum (LEPTNO); test: Use example 9: microtest, growth of Leptosphaeria nodorum (LEPTNO); assay type: cell-based; conditions: relative growth vs compound-free control (100%); for Growth (%) LEPTNO Use Ex. 9: 125 ppm, 7 days, Table 9; for Growth at 125 ppm (%) LEPTNO Use Ex. 9: 7 days after inoculation
Description: as §1, §2, §3

[9] = tested on: Botrytis cinerea (BOTRCI); test: Use example 6: microtest, growth of Botrytis cinerea (BOTRCI); assay type: cell-based; conditions: relative growth vs compound-free control (100%); for Growth at 125 ppm (%) BOTRCI Use Ex. 6 / Growth at 8 ppm (%) BOTRCI Use Ex. 6: 7 days after inoculation; for Growth (%) BOTRCI Use Ex. 6: 0.5 ppm, 7 days
Description: as §1, §2, §3

[10] = tested on: Sclerotinia sclerotiorum (SCLESC); test: Use example 11: microtest, growth of Sclerotinia sclerotiorum (SCLESC); assay type: cell-based; conditions: relative growth vs compound-free control (100%), 7 days after inoculation
Description: as §1, §2, §3

[11] = tested on: Alternaria solani (ALTESO); test: Use example 5: microtest, growth of Alternaria solani (ALTESO); assay type: cell-based; conditions: 0.125 ppm; relative growth vs compound-free control (100%), 7 days after inoculation
Description: as §1, §2, §3

Row | SMILES | % PUCCRT Disease level P7 at 4 ppm [3] | % PUCCRT Disease level P7 at 16 ppm [3] | % PHAKPA (F129L) Disease level P2 at 4 ppm [4] | % PHAKPA (F129L) Disease level P2 at 16 ppm [4] | % PHAKPA (F129L) Disease level P6 at 4 ppm [5] | % PHAKPA (F129L) Disease level P6 at 16 ppm [5] | % PUCCRT Disease level K4 at 4 ppm [6] | % PUCCRT Disease level K4 at 16 ppm [6] | further results
1 | CNC(=O)/C(=N/OC)c1cccc(C)c1CO/N=C(\COC)c1c(F)cc(F)cc1F [I.3-A-43860, reference compound] | – | – | – | – | – | – | – | – | Growth (%) PYRNTE F129L Use ex. 10 [1]: 36%; Growth (%) COLLLA Use ex. 8 [2]: 62%
2 | CNC(=O)/C(=N/OC)c1cccc(Cl)c1CO/N=C(\COC)c1c(F)cc(F)cc1F [compound 31] | 17% | 4% | 0% | 0% | 3% | 0% | 40% | 7% | Growth (%) PYRNTE F129L Use ex. 10 [1]: 21%; Growth (%) COLLLA Use ex. 8 [2]: 34%
3 | CNC(=O)/C(=N/OC)c1cccc(C)c1CO/N=C(\COC)c1ccccc1 [reference compound] | – | – | – | – | – | – | – | – | Growth at 2 ppm (%) COLLLA Use ex. 8 [2]: 44%
4 | CO/C=C(/C(=O)OC)c1cccc(Br)c1CO/N=C(\COC)c1c(F)cc(F)cc1F [compound 58] | 57% | 30% | 2% | 0% | 0% | 0% | 27% | 15% | Growth (%) CERCSO Use Ex. 7 ([7]; 125 ppm, Table 9): 63%; Growth (%) LEPTNO Use Ex. 9 [8]: 47%; Growth (%) COLLLA Use Ex. 8 [2]: 26%
5 | CO/N=C(/C(=O)OC)c1cccc(Br)c1CO/N=C(\C)c1ccccc1 [reference compound] | – | – | – | – | – | – | – | – | Growth at 125 ppm (%) BOTRCI Use Ex. 6 [9]: 69%; Growth at 125 ppm (%) SCLESC Use Ex. 11 [10]: 39%; Growth at 125 ppm (%) LEPTNO Use Ex. 9 [8]: 19%
6 | COC/C(=N\OCc1c(C)cccc1/C(=N\OC)C(=O)OC)c1ccc(F)cc1 [reference compound] | – | – | – | – | – | – | – | – | Growth (%) SCLESC Use ex. 11 ([10]; 8 ppm): 89%; Growth (%) ALTESO Use ex. 5 [11]: 97%
7 | CNC(=O)/C(=N/OC)c1cccc(Cl)c1CO/N=C(\COC)c1ccccc1 [compound 4, (2E)-2-[3-chloro-2-[[(Z)-(2-methoxy-1-phenyl-ethylidene)amino]oxymethyl]phenyl]-2-methoxyimino-N-methyl-acetamide] | 17% | 4% | – | – | – | – | 77% | 9% | Growth at 2 ppm (%) COLLLA Use ex. 8 [2]: 29%
8 | CO/C=C(/C(=O)OC)c1cccc(C)c1CO/N=C(\COC)c1c(F)cc(F)cc1F [I.2-A-43860, reference compound] | – | – | – | – | – | – | – | – | Growth (%) CERCSO Use Ex. 7 ([7]; 125 ppm, Table 9): 90%; Growth (%) LEPTNO Use Ex. 9 [8]: 64%; Growth (%) COLLLA Use Ex. 8 [2]: 43%
9 | COC/C(=N\OCc1c(Cl)cccc1/C(=N\OC)C(=O)OC)c1ccc(Cl)cc1 [compound 34] | 48% | 9% | 68% | 22% | 80% | 25% | 75% | 70% | Growth (%) PYRNTE F129L Use Ex. 10 [1]: 4%; Growth (%) BOTRCI Use Ex. 6 [9]: 35%; Growth (%) CERCSO Use Ex. 7 ([7]; 31 ppm): 56%
10 | CNC(=O)/C(=N/OC)c1cccc(C)c1CO/N=C(\COC)c1cccc(C(F)(F)F)c1 [reference compound] | – | – | – | – | – | – | – | – | Growth at 8 ppm (%) BOTRCI Use Ex. 6 [9]: 78%; Growth at 8 ppm (%) CERCSO Use ex. 7 [7]: 28%
11 | CNC(=O)/C(=N/OC)c1cccc(Cl)c1CO/N=C(\COC)c1cccc(C(F)(F)F)c1 [compound 56] | 2% | 2% | 15% | 0% | 23% | 0% | 8% | 0% | Growth at 8 ppm (%) BOTRCI Use Ex. 6 [9]: 64%; Growth at 8 ppm (%) CERCSO Use ex. 7 [7]: 13%
12 | CO/C=C(/C(=O)OC)c1cccc(Cl)c1CO/N=C(\COC)c1c(F)cc(F)cc1F [compound 12, Methyl-(E)-2-[3-chloro-2-[[(Z)-[2-methoxy-1-(2,4,6-trifluorophenyl)ethylidene]amino]oxymethyl]phenyl]-3-methoxy-prop-2-enoate] | 17% | 9% | 2% | 0% | 4% | 0% | 23% | 18% | Growth (%) COLLLA Use Ex. 8 [2]: 20%
13 | COC/C(=N\OCc1c(Br)cccc1/C(=N\OC)C(=O)OC)c1ccccc1 [compound 57] | 60% | 13% | 41% | 3% | 48% | 21% | – | – | Growth at 125 ppm (%) BOTRCI Use Ex. 6 [9]: 0%; Growth at 125 ppm (%) SCLESC Use Ex. 11 [10]: 2%; Growth at 125 ppm (%) LEPTNO Use Ex. 9 [8]: 1%
14 | COC/C(=N\OCc1c(C)cccc1/C(=N\OC)C(=O)OC)c1ccc(Cl)cc1 [I.1-A-83, reference compound] | – | – | – | – | – | – | – | – | Growth (%) PYRNTE F129L Use Ex. 10 [1]: 23%; Growth (%) BOTRCI Use Ex. 6 [9]: 53%; Growth (%) CERCSO Use Ex. 7 ([7]; 31 ppm): 83%
